Laboratory results published in publication PMC12027946, “Ionic and Non-Ionic Counterparts Based on Bis(Uracilyl)Alkane Moiety with Highest Selectivity Towards Acetylcholinesterase for Protection Against Organophosphate Poisoning and Treating Alzheimer’s Disease” (International Journal of Molecular Sciences, 2025).
Like-named read-outs stand apart in the source and are kept apart here.

Key:
human AChE = molecular target: T1, human AChE (Homo sapiens, UniProt P22303); assay: Inhibition constants (Dixon and Cornish–Bowden plots), AChE; type: biochemical
T1 construct: purchased Sigma-Aldrich
Method: Experiments were performed using four different concentrations of ATCh as a substrate for AChE, and with BuTCh as a substrate for BuChE. According to the analysis of Dixon and Cornish–Bowden plots for bisuracil 2b, AChE and BuChE inhibition is of a mixed type characterised both by competitive inhibition (Kci) and uncompetitive inhibition (Kui) components. For AChE, Kci was determined to be 55.7 ± 8.1 pM while Kui = 156 ± 18 pM (Figure 3A,B), and Kci = 0.13 ± 0.02 mM while Kui = 0.7 ± 0.06 mM for BuChE (Figure 3C,D). Inhibition of AChE and BuChE by bisuracil 3c was of a mixed type. For the AChE constant, Kci was 0.7 ± 0.04 nM while Kui 4.45 ± 1.76 nM (Figure 4A,B); for the BuChE constant, Kci = 0.04 ± 0.007 мM while Kui = 0.68 ± 0.08 мM (Figure 4C,D).
A UV-1800 Shimadzu (Shimadzu Co., Kyoto, Japan) spectrophotometer was utilised to conduct the measurements. The final enzyme concentration in the assays was in the picomolar range. In order to ascertain the levels of spontaneous hydrolysis of the enzyme and substrate in the absence of an inhibitor, controls were performed for each substrate concentration. The change in absorption was then recorded over a period of three minutes. The inhibition constants were determined from a Dixon plot and Cornish–Bowden transformation.

[1] = Acute toxicity, single i.p. injection; settings: CD-1, mouse, in vivo, ip, mice
Method: Toxicological experiments were performed using a single i.p. injection of the tested compounds in CD-1 mice weighing 20–25 g. Stock solutions of the tested compounds were diluted in ethanol or water. The final ethanol dose was 100 mg/kg. Nine different doses of the tested compounds were used with 12 mice per dose. Animals were observed 7 days after injection, and symptoms of toxicity were recorded.

[2] = test system: scopolamine-induced amnesia in mice; assay: Novel object recognition test, scopolamine-induced amnesia; type: in vivo; settings: scopolamine 1.5 mg/kg
Method: This study explored the ability of bisuracil 3c to counteract scopolamine-induced amnesia in mice, utilising behavioural assessments conducted through the novel object recognition test. […] The induction of amnesia was facilitated by the i.p. injection of scopolamine (1.5 mg/kg) 50 min prior to testing. […]. An equivalent amount of the vehicle was administered to a control group of mice.
The experiments were carried out on CD1 mice of both sexes weighing 24–25 g. The novel object recognition test was conducted over a period of three days. On the first day, the mice were placed individually into the square testing arena with black walls (50 cm in length, 50 cm in width, 38 cm in height) for 5 min without any objects. On the second day, two identical objects were placed in the central part of the arena, and the mice were allowed to explore the objects for 10 min. Test compounds were administered prior to testing on the second day. The induction of amnesia was facilitated by i.p. injection of scopolamine (1.5 mg/kg) 50 min prior to testing. Tested compounds were administered i.p. 30 min prior to testing. The control group of animals was administered with an equivalent amount of vehicle. On the third day, the mice were presented with a familiar and a novel object for 10 min. The time of exploration of each object by the mice was recorded using a digital camera. After each test, the arena was cleaned with a solution of 70% ethanol. At the end of the test, the preference index (exploration of novel object/total exploration time × 100) was calculated.

mice = assay: Rotarod test; type: in vivo; settings: 3c 5 mg/kg i.p.; control 154 ± 20 s, p = 0.137
Method: The ability of effective doses of bisuracil 2b (0.01 mg/kg) and bisuracil 3c (5 mg/kg) to induce incapacitation was evaluated. Locomotor activity, measured as the total distance travelled, and exploratory behaviour, assessed by the number of rearings (head inclinations) and head dips, were evaluated using the open-field test. Additionally, motor coordination was analysed using the rotarod test, where the ability of mice to stay on the rotating rod was recorded. The compounds were administered i.p. 30 min before testing, while the control group received an equivalent volume of the vehicle.
To analyse motor function, rotarod and open-field tests were carried out. Mice were randomly divided into 3 groups (n = 12): a control group of mice and groups of mice treated with tested compounds. Tests were conducted 1 h after compound exposure. To assess motor function, mice were first placed on a rotarod treadmill (Ugo Basile, Italy). Rotation speed was fixed at 15 rpm, and the time that each mouse remained on the rod was recorded as the score, with a maximum duration of 300 s per trial. Each mouse underwent 3 trials. […] To assess motor function, the distance travelled in centimetres in the arena was measured, using VideoMot2 software (Version 8.02 (131) 03-07-17 (TSE Systems, Bad Homburg, Germany).

T1 sequence (P22303 32-614): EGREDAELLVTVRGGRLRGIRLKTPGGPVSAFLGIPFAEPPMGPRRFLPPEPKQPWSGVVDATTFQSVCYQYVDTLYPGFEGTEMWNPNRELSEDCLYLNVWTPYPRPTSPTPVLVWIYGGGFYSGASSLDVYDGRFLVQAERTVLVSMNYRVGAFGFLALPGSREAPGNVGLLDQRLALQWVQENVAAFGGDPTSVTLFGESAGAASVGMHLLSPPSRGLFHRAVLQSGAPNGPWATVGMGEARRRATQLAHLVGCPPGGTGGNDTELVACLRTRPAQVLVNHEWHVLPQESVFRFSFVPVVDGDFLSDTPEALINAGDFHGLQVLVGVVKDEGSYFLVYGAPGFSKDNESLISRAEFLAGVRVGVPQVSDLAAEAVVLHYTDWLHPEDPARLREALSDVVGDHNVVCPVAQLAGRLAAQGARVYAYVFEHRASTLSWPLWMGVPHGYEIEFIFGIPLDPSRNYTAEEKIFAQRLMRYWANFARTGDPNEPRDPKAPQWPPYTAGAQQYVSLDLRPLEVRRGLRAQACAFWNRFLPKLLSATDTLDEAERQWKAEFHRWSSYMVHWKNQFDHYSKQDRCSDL

CCN(CCCCCn1c(=O)ccn(CCCCCn2c(C)cc(=O)n(C)c2=O)c1=O)Cc1ccccc1C#N [3c]
Kui (uncompetitive inhibition constant), AChE (human AChE; ATCh as substrate): 4.45 ± 1.76 nM
Ki (human AChE; ATCh as substrate, read-out: Kci (competitive inhibition constant), AChE): 0.7 ± 0.04 nM
type of AChE inhibition (human AChE; Dixon and Cornish–Bowden plots): mixed type
LD50 at 7 days ([1]; observed 7 days, read-out: LD50 (median lethal dose)): 22.8 mg/kg
LD50 at 7 days ([1]; read-out: LD50 95% confidence limits): 15 to 28.7 mg/kg
effect on the preference index ([2]; 3c 2 mg/kg i.p. 30 min prior to testing): no significant effect
increase in the preference for the novel object compared to the scopolamine-treated group ([2]; 3c 5 mg/kg i.p. 30 min prior to testing, p = 0.01): 30.5%
mean fall time (rotarod) (mice): 170 ± 19 s
